From patent publication US8735414B2 (priority 2009, dated 2014)

What was measured:
[1] = test system: bicistronic HCV replicon (replicon RNA, GenBank Accession No. AJ242654); assay: HCV Replicon Assay; format: cell-based; conditions: Hepatitis C virus, 72 h, read-out: Replicon IC50

Row | SMILES | melting point [°C] | IC50 [1] [nM]
1 | Cc1c(F)cc2c(C#N)c(-c3ncc(S(=O)(=O)NC(CF)CF)cn3)n(C3CCCC3)c2c1F [compound 656, 2-(3-cyano-1-cyclopentyl-5,7-difluoro-6-methyl-1H-indol-2-yl)-N-(1,3-difluoropropan-2-yl)pyrimidine-5-sulfonamide] | 230 to 234 | < 500
2 | C[C@H](NS(=O)(=O)c1ccc(-c2c(C#N)c3cc(F)c(C4CC4)cc3n2C2CCC2)nc1)C(F)(F)F [compound 630, 6-(3-cyano-1-cyclobutyl-6-cyclopropyl-5-fluoro-1H-indol-2-yl)-N-[(2S)-1,1,1-trifluoropropan-2-yl]pyridine-3-sulfonamide] | 201 to 203 | < 500
3 | Cc1cc2c(cc1F)c(C#N)c(-c1ccc(S(=O)(=O)NC(CF)CF)cn1)n2-c1ccccn1 [compound 540, 6-[3-cyano-5-fluoro-6-methyl-1-(pyridin-2-yl)-1H-indol-2-yl]-N-(1,3-difluoropropan-2-yl)pyridine-3-sulfonamide] | 233 to 236 | < 500
4 | CC(NS(=O)(=O)c1ccc(-c2c(C#N)c3ccc(OC(F)F)cc3n2C2CCCC2)nc1)C(F)(F)F (centres unmarked) [compound 53, 6-[3-cyano-1-cyclopentyl-6-(difluoromethoxy)-1H-indol-2-yl]-N-(1,1,1-trifluoropropan-2-yl)pyridine-3-sulfonamide] | 189 to 195 | < 500
5 | COC(=O)c1c(-c2ccc(S(=O)(=O)N[C@@H](C)C(F)(F)F)cn2)n(C2CCCCC2)c2ccc(F)cc12 [compound 717, methyl 1-cyclohexyl-5-fluoro-2-(5-{[(2S)-1,1,1-trifluoropropan-2-yl]sulfamoyl}pyridin-2-yl)-1H-indole-3-carboxylate] | 232 to 240 | 500 to 2000
6 | CCc1cc2c(cc1F)c(C#N)c(-c1ccc(S(=O)(=O)N[C@@H](C)C(F)(F)F)cn1)n2-c1cccnn1 [compound 975, 6-[3-cyano-6-ethyl-5-fluoro-1-(pyridazin-3-yl)-1H-indol-2-yl]-N-[(2S)-1,1,1-trifluoropropan-2-yl]pyridine-3-sulfonamide] | 240 to 247 | < 500
7 | CC(C)(NS(=O)(=O)c1ccc(-c2c(C#N)c3ccc(OC(F)F)cc3n2C2CCCC2)nc1)C(F)(F)F [compound 382, 6-[3-cyano-1-cyclopentyl-6-(difluoromethoxy)-1H-indol-2-yl]-N-(1,1,1-trifluoro-2-methylpropan-2-yl)pyridine-3-sulfonamide] | 170 to 174 | < 500
8 | CC(C)(C)NS(=O)(=O)c1ccc(-c2c(C#N)c3cc(F)c(C4CC4)cc3n2-c2ccccc2)nc1 [compound 1117, N-tert-butyl-6-(3-cyano-6-cyclopropyl-5-fluoro-1-phenyl-1H-indol-2-yl)pyridine-3-sulfonamide] | 219.2 to 220.8 | < 500
9 | C[C@@H](NS(=O)(=O)c1ccc(-c2c(C#N)c3cc(F)ccc3n2C2CCC2)nc1)C(F)(F)F [compound 219, 6-(3-cyano-1-cyclobutyl-5-fluoro-1H-indol-2-yl)-N-[(2R)-1,1,1-trifluoropropan-2-yl]pyridine-3-sulfonamide] | 109 to 110 | < 500
10 | CCc1cc2c(cc1F)c(C#N)c(-c1ccc(S(=O)(=O)N[C@@H](C)C(F)(F)F)cn1)n2-c1ncc(Cl)cn1 [compound 942, 6-[1-(5-chloropyrimidin-2-yl)-3-cyano-6-ethyl-5-fluoro-1H-indol-2-yl]-N-[(2S)-1,1,1-trifluoropropan-2-yl]pyridine-3-sulfonamide] | 222 to 229 | < 500
11 | C[C@H](NS(=O)(=O)c1cnc(-c2c(C#N)c3cc(F)ccc3n2C2CCC2)nc1)C(F)(F)F [compound 451, 2-(3-cyano-1-cyclobutyl-5-fluoro-1H-indol-2-yl)-N-[(2S)-1,1,1-trifluoropropan-2-yl]pyrimidine-5-sulfonamide] | 198 to 203 | < 500
12 | CC[C@H](NS(=O)(=O)c1ccc(-c2c(C#N)c3cc(F)c(OC(F)F)cc3n2C2CCC2)nc1)C(F)(F)F [compound 738, 6-[3-cyano-1-cyclobutyl-6-(difluoromethoxy)-5-fluoro-1H-indol-2-yl]-N-[(2S)-1,1,1-trifluorobutan-2-yl]pyridine-3-sulfonamide] | 166 to 173 | < 500
13 | N#Cc1c(-c2ccc(S(=O)(=O)NC(CF)CF)cn2)n(C2CCCC2)c2cc(CC(F)F)ccc12 [compound 593, 6-[3-cyano-1-cyclopentyl-6-(2,2-difluoroethyl)-1H-indol-2-yl]-N-(1,3-difluoropropan-2-yl)pyridine-3-sulfonamide] | 178 to 184 | < 500
14 | C[C@H](NS(=O)(=O)c1ccc(-c2c(C#N)c3ccc(Cl)cc3n2C2CCC2)nc1)C(F)(F)F [compound 375, 6-(6-chloro-3-cyano-1-cyclobutyl-1H-indol-2-yl)-N-[(2S)-1,1,1-trifluoropropan-2-yl]pyridine-3-sulfonamide] | 198 to 204 | < 500
15 | CCCS(=O)(=O)Nc1ccc(-c2c(C#N)c3ccc(Oc4ncccn4)cc3n2C2CCC2)nc1 [compound 271, N-{6-[3-cyano-1-cyclobutyl-6-(pyrimidin-2-yloxy)-1H-indol-2-yl]pyridin-3-yl}propane-1-sulfonamide] | 206 to 208 | 500 to 2000
16 | CC(C)Oc1ccc2c(C#N)c(-c3ccc(NS(=O)(=O)C(C)C)cn3)n(CC3CC3)c2c1 [compound 281, N-{6-[3-cyano-1-(cyclopropylmethyl)-6-(propan-2-yloxy)-1H-indol-2-yl]pyridin-3-yl}propane-2-sulfonamide] | 168 to 172 | 500 to 2000
17 | Cc1cc2c(cc1Br)c(C#N)c(-c1ccc(S(=O)(=O)N[C@@H](C)C(F)(F)F)cn1)n2C1CCCC1 [compound 675, 6-(5-bromo-3-cyano-1-cyclopentyl-6-methyl-1H-indol-2-yl)-N-[(2S)-1,1,1-trifluoropropan-2-yl]pyridine-3-sulfonamide] | 204 to 204.5 | < 500
18 | Cc1ccc2c(C#N)c(-c3ccc(S(=O)(=O)NC(C)(C)C(F)(F)F)cn3)n(C3CCC3)c2c1 [compound 478, 6-(3-cyano-1-cyclobutyl-6-methyl-1H-indol-2-yl)-N-(1,1,1-trifluoro-2-methylpropan-2-yl)pyridine-3-sulfonamide] | 222 to 227 | < 500
19 | C[C@H](NS(=O)(=O)c1cnc(-c2c(C#N)c3ccc(OC(F)F)cc3n2-c2ccccc2)nc1)C(F)(F)F [compound 611, 2-[3-cyano-6-(difluoromethoxy)-1-phenyl-1H-indol-2-yl]-N-[(2S)-1,1,1-trifluoropropan-2-yl]pyrimidine-5-sulfonamide] | 216 to 218 | < 500
20 | Cc1ccc2c(C#N)c(-c3ccc(S(=O)(=O)N[C@H](C)C(F)(F)F)cn3)n(C3CCCCC3)c2c1 [compound 213, 6-(3-cyano-1-cyclohexyl-6-methyl-1H-indol-2-yl)-N-[(2R)-1,1,1-trifluoropropan-2-yl]pyridine-3-sulfonamide] | 208 to 212 | < 500
21 | CC(C)(C)S(=O)(=O)Nc1ccc(-c2c(C#N)c3cc(F)c(C4CC4)cc3n2-c2ccccc2)cn1 [compound 1101, N-[5-(3-cyano-6-cyclopropyl-5-fluoro-1-phenyl-1H-indol-2-yl)pyridin-2-yl]-2-methylpropane-2-sulfonamide] | 249 to 250 | 500 to 2000
22 | CCc1cc2c(cc1F)c(C#N)c(-c1ccc(S(=O)(=O)N[C@@H](C)C(F)(F)F)cn1)n2-c1nccs1 [compound 935, 6-[3-cyano-6-ethyl-5-fluoro-1-(1,3-thiazol-2-yl)-1H-indol-2-yl]-N-[(2S)-1,1,1-trifluoropropan-2-yl]pyridine-3-sulfonamide] | 187 to 191 | < 500
23 | CC(C)n1c(-c2ccc(S(=O)(=O)NC(CF)CF)cn2)c(C#N)c2ccc(F)cc21 [compound 61, 6-[3-cyano-6-fluoro-1-(propan-2-yl)-1H-indol-2-yl]-N-(1,3-difluoropropan-2-yl)pyridine-3-sulfonamide] | 155 to 156 | < 500
24 | Cc1cc2c(cc1F)c(C(=O)NC(C)C)c(-c1ccc(S(=O)(=O)N[C@@H](C)C(F)(F)F)cn1)n2C1CCCC1 [compound 763, 1-cyclopentyl-5-fluoro-6-methyl-N-(propan-2-yl)-2-(5-{[(2S)-1,1,1-trifluoropropan-2-yl]sulfamoyl}pyridin-2-yl)-1H-indole-3-carboxamide] | 234 to 236 | 500 to 2000
25 | C[C@H](NS(=O)(=O)c1cnc(-c2c(C#N)c3ccc(C4CC4)cc3n2C2CCC2)nc1)C1CC1 [compound 131, 2-(3-cyano-1-cyclobutyl-6-cyclopropyl-1H-indol-2-yl)-N-[(1S)-1-cyclopropylethyl]pyrimidine-5-sulfonamide] | 165 to 167 | < 500
26 | Cc1cc2c(cc1F)c(C#N)c(-c1ccc(S(=O)(=O)N[C@H](C)C(F)(F)F)cn1)n2C1CCCCC1 [compound 680, 6-(3-cyano-1-cyclohexyl-5-fluoro-6-methyl-1H-indol-2-yl)-N-[(2R)-1,1,1-trifluoropropan-2-yl]pyridine-3-sulfonamide] | 224 to 229 | < 500
27 | Cc1ccc2c(C#N)c(-c3ccc(S(=O)(=O)NC4(C(F)(F)F)CC4)cn3)n(C3CCC3)c2c1 [compound 256, 6-(3-cyano-1-cyclobutyl-6-methyl-1H-indol-2-yl)-N-[1-(trifluoromethyl)cyclopropyl]pyridine-3-sulfonamide] | 189 to 194 | < 500
28 | Cc1ccc2c(C#N)c(-c3ccc(S(=O)(=O)N[C@H](C)C(F)(F)F)cn3)n(C(C)C)c2c1 [compound 210, 6-[3-cyano-6-methyl-1-(propan-2-yl)-1H-indol-2-yl]-N-[(2R)-1,1,1-trifluoropropan-2-yl]pyridine-3-sulfonamide] | 211 to 216 | < 500
